In patent US7550469B2, “Heterocyclic amide derivatives and their use as dopamine D3 receptor ligands” (Aventis Pharmaceuticals Inc., priority 2001, dated 2009):

biological target: T1, cloned human dopamine D3 receptors (Homo sapiens, UniProt P35462); assay: [N-Methyl-3H]Spiroperidol binding to cloned human dopamine D3 receptors (Protocol 1); conditions: D3 Ki (nM), the 25th table
T1 construct: expressed in transfected cells; membrane homogenate
Method in brief: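 Membranes from CHO cells stably expressing cloned human D3 receptor were used for [N-methyl-3H]spiroperidol (60-90 Ci/mmol) binding. Assay buffer was 0.05 M Tris HCl pH 7.7 with 120 mM NaCl, 5 mM KCl, 2 mM CaCl2 and 1 mM MgCl2, optionally 0.1% ascorbic acid; total ligand concentration calculated from added CPM.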

T1 sequence (P35462 whole entry): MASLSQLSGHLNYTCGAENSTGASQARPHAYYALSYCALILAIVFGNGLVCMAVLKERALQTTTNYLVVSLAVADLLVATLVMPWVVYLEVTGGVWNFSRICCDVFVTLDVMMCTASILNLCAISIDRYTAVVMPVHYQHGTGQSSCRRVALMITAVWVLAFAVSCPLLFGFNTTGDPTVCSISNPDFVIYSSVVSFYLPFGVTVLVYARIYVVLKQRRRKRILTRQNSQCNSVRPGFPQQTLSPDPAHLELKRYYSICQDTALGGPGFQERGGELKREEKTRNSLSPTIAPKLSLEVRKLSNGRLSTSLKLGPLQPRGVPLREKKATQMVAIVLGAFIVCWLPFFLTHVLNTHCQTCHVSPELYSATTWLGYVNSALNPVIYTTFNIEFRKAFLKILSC

Row | Compound | Ki [nM]
1 | COc1ccc(OC(=O)NCC2CC2CN2CCC(c3noc4ccsc34)CC2)cc1 (stereo not drawn) [compound 831671] | 96.4
2 | Cc1ccc(OC(=O)NCC2CC2CN2CCC(c3noc4ccsc34)CC2)cc1 (stereo not drawn) [compound 831698] | 29.4

same assay, conditions: Table 2; read-out: D3K1

Row | Ki [nM] | Compound
3 | 16.9 | O=C(NCCCCCN1CCN(c2csc3cc(C(F)(F)F)ccc23)CC1)c1cc2ccccc2o1 [compound 826803]
4 | 8.73 | O=C(NCCCCN1CCCN(c2csc3cc(F)ccc23)CC1)c1cccc2cccnc12 [compound 817266]
5 | 123 | O=C(NCCCN1CCCN(c2csc3cc(F)ccc23)CC1)c1cc2ccccc2s1 [compound 827143]
6 | 99 | COc1ccccc1C(=O)NCCCN1CCCN(c2csc3cc(F)ccc23)CC1 [compound 827141]
7 | 2.93 | Nc1cc2ccccc2cc1C(=O)NCCCCN1CCCN(c2csc3cc(F)ccc23)CC1 [compound 817259]

Further lines, the molecule ahead of its results:

Row | Compound | Ki [nM]
8 | O=C(NCCC(CO)CN1CCN(c2csc3cc(C(F)(F)F)ccc23)CC1)c1ccc2[nH]ccc2c1 (stereo not drawn) [818620ES] | 246
9 | O=C(Cc1cccs1)NCCCCN1CCN(c2c(-c3ccccc3)sc3cc(F)ccc23)CC1 [compound 815884] | 296
10 | O=C(NC(CO)CCCN1CCN(c2csc3cc(C(F)(F)F)ccc23)CC1)c1cc2ccccc2s1 (stereo not drawn) [compound 815684] | 208
11 | O=C(N[C@H](CO)CCCN1CCN(c2csc3cc(C(F)(F)F)ccc23)CC1)c1ccc2[nH]ccc2c1 [compound 815700] | 128
12 | O=C(N[C@H](CO)CCCN1CCN(c2csc3cc(C(F)(F)F)ccc23)CC1)c1cc2ccccc2[nH]1 [compound 815698] | 329
13 | O=C(NCC(CO)CCN1CCN(c2csc3cc(C(F)(F)F)ccc23)CC1)c1ccco1 (stereo not drawn) [818924ES] | 318
14 | O=C(NCC(CO)CCN1CCN(c2csc3cc(C(F)(F)F)ccc23)CC1)c1ccncc1 (stereo not drawn) [818940ES] | 307

same assay, conditions: read-out: D3K1

Row | Ki [nM] | Compound
15 | 37 | COc1ccc2[nH]c(C(=O)NCC3CCC3CN3CCN(c4csc5cc(C(F)(F)F)ccc45)CC3)cc2c1 (stereo not drawn) [compound 826291]
16 | 2.8 | O=C(NCCCCCCN1CCN(c2csc3cc(C(F)(F)F)ccc23)CC1)c1ccc2ccccc2c1 [compound 826751]
17 | 0.12 | O=C(NCCCCCCN1CCN(c2csc3cc(C(F)(F)F)ccc23)CC1)c1cccc(Cl)c1 [compound 826747]
18 | 29 | COc1cccc(C(=O)NC/C=C\CN2CCN(c3csc4cc(C(F)(F)F)ccc34)CC2)c1 [compound 826344]
19 | 36.4 | O=C(NCCCCCN1CCN(c2csc3cc(C(F)(F)F)ccc23)CC1)c1c[nH]c2ccccc12 [compound 826797]

The next lines start with the molecule.

Row | Compound | Ki [nM]
20 | O=C(NCCCCN1CCN(c2csc3cc(C(F)(F)F)ccc23)CC1)c1cccs1 [81708A] | 4.5
21 | CCCCCOc1ccc(C(=O)NCCCCN2CCN(c3csc4cc(C(F)(F)F)ccc34)CC2)cc1 [compound 815552] | 140
22 | O=C(NCCCCN1CCN(c2c(Cl)sc3cc(F)ccc23)CC1)c1ccc(-c2ccccc2)cc1 [compound 815059] | 13.8
23 | O=C(NCCCCN1CCN(c2c(Cl)sc3cc(F)ccc23)CC1)c1sc2ccccc2c1Cl [compound 815057] | 12.3
24 | O=C(NC(CO)CCCN1CCN(c2csc3cc(C(F)(F)F)ccc23)CC1)c1cc2ccccc2s1 (stereo not drawn) [compound 815684] | 208
25 | O=C(N[C@H](CO)CCCN1CCN(c2csc3cc(C(F)(F)F)ccc23)CC1)c1ccc2[nH]ccc2c1 [compound 815700] | 128
26 | O=C(N[C@H](CO)CCCN1CCN(c2csc3cc(C(F)(F)F)ccc23)CC1)c1cc2ccccc2[nH]1 [compound 815698] | 329
27 | O=C(NCCCCN1CCN(c2c(Cl)sc3cc(C(F)(F)F)ccc23)CC1)c1ccc(F)cc1F [compound 815561] | 41
28 | O=C(NCCCCN1CCN(c2c(Cl)sc3cc(C(F)(F)F)ccc23)CC1)C1CCCC1 [compound 815579] | 104
29 | O=C(NCCCCN1CCN(c2c(Cl)sc3cc(C(F)(F)F)ccc23)CC1)c1ccc(C(F)(F)F)cc1 [compound 815575] | 50

same assay, conditions: the 13th table, unit inferred; read-out: D3Ki

Row | Ki [nM] | Compound
30 | 15 | O=C(NCCCCN1CCCN(c2csc3cc(F)ccc23)CC1)c1cccnc1Cl [compound 822201]
31 | 6.1 | O=C(NCCCCN1CCCN(c2csc3cc(F)ccc23)CC1)c1cccc2ccccc12 [compound 822153]

More lines, now with the values behind:

Row | Compound | Ki [nM]
32 | Cc1nnsc1C(=O)NCCCCN1CCCN(c2csc3cc(F)ccc23)CC1 [S981837] | 1.3
33 | O=C(NCCCCCN1CCCN(c2csc3cc(F)ccc23)CC1)c1csnn1 [S984498] | 39.5
34 | Cc1oc(-c2ccc(Cl)cc2)cc1C(=O)NCCCCN1CCCN(c2csc3cc(C(F)(F)F)ccc23)CC1 [S980663] | 96
35 | COc1ccc(C(=O)NCCCCCN2CCC(c3noc4ccsc34)CC2)cc1OC [compound 816215] | 272
36 | O=C(NCCCCN1CCCN(c2csc3cc(F)ccc23)CC1)c1cccc2c1-c1ccccc1C2=O [S982536] | 1.4
37 | O=C(NCCCCCN1CCCN(c2csc3cc(F)ccc23)CC1)c1ccc2[nH]ccc2c1 [S984509] | 11.9
38 | O=C(NCCCCN1CCCN(c2csc3cc(F)ccc23)CC1)c1cc2ccccc2o1 [S977819] | 3.21
39 | O=C(NCCCCCN1CCCN(c2csc3cc(F)ccc23)CC1)c1c[nH]c2ccccc12 [S984507] | 62
40 | Cn1cccc1C(=O)NCCCCN1CCCN(c2csc3cc(C(F)(F)F)ccc23)CC1 [S980655] | 40
41 | O=C(NCCCCCN1CCCN(c2csc3cc(F)ccc23)CC1)c1ccc(OC(F)(F)F)cc1 [S9894488] | 23.8
42 | Cn1c(C(=O)NCCCCCN2CCCN(c3csc4cc(F)ccc34)CC2)cc2ccccc21 [S984506] | 33.4
43 | O=C(NCCCCN1CCCN(c2csc3cc(C(F)(F)F)ccc23)CC1)c1cccc2[nH]ccc12 [S980650] | 43
44 | O=C(NCCCCN1CCC(c2noc3ccsc23)CC1)c1cc2ccccc2s1 [compound 815147] | 371
45 | CS(=O)(=O)c1ccc(CC(=O)NCCCCN2CCCN(c3csc4cc(F)ccc34)CC2)cc1 [S982511] | 12
46 | O=C(NCCCCN1CCCN(c2csc3cc(F)ccc23)CC1)c1ccc2[nH]cnc2c1 [S977831] | 1.87
47 | O=C(NCCCCN1CCCN(c2csc3cc(F)ccc23)CC1)c1cc([N+](=O)[O-])cc([N+](=O)[O-])c1 [S982535] | 5.3
48 | O=C(NCCCCCN1CCCN(c2csc3cc(F)ccc23)CC1)c1ccc2cc[nH]c2c1 [S984510] | 10.1
49 | O=C(NCCCCN1CCCN(c2csc3cc(C(F)(F)F)ccc23)CC1)c1cccc(Cl)c1 [S980628] | 110

same assay, conditions: the 14th table; read-out: D3 Ki

Row | Ki [nM] | Compound
50 | 2.8 | O=C(NCCCCCCN1CCN(c2csc3cc(C(F)(F)F)ccc23)CC1)c1ccc2ccccc2c1 [compound 826751]
51 | 0.12 | O=C(NCCCCCCN1CCN(c2csc3cc(C(F)(F)F)ccc23)CC1)c1cccc(Cl)c1 [compound 826747]
52 | 16.9 | O=C(NCCCCCN1CCN(c2csc3cc(C(F)(F)F)ccc23)CC1)c1cc2ccccc2o1 [compound 826803]
53 | 11.9 | O=C(NCCCCCN1CCN(c2csc3cc(F)ccc23)CC1)c1n[nH]c2ccccc12 [compound 826791]
54 | 36.4 | O=C(NCCCCCN1CCN(c2csc3cc(C(F)(F)F)ccc23)CC1)c1c[nH]c2ccccc12 [compound 826797]

Further lines, the molecule ahead of its results:

Row | Compound | Ki [nM]
55 | O=C(NC(CO)CCCN1CCN(c2csc3cc(C(F)(F)F)ccc23)CC1)c1cc2ccccc2s1 (stereo not drawn) [compound 815684] | 208
56 | O=C(N[C@H](CO)CCCN1CCN(c2csc3cc(C(F)(F)F)ccc23)CC1)c1ccc2[nH]ccc2c1 [compound 815700] | 128
57 | O=C(N[C@H](CO)CCCN1CCN(c2csc3cc(C(F)(F)F)ccc23)CC1)c1cc2ccccc2[nH]1 [compound 815698] | 329

same assay, conditions: the 15th table; read-out: D3 Ki

Row | Compound | Ki [nM]
58 | O=C(NCCCCN1C2CCC1CC(c1noc3ccccc13)C2)c1ccccc1 (stereo not drawn) [compound 816528] | 299
59 | O=C(NCCCCN1C2CCC1CC(c1noc3ccccc13)C2)c1ccc(F)cc1 (stereo not drawn) [compound 816520] | 292
60 | O=C(NCCCCN1C2CCC1CC(c1noc3ccccc13)C2)c1ccc(Br)cc1 (stereo not drawn) [compound 816536] | 140

same assay, conditions: the 16th table; read-out: D3 Ki

Row | Ki [nM] | Compound
61 | 8.73 | O=C(NCCCCN1CCCN(c2csc3cc(F)ccc23)CC1)c1cccc2cccnc12 [compound 817266]
62 | 123 | O=C(NCCCN1CCCN(c2csc3cc(F)ccc23)CC1)c1cc2ccccc2s1 [compound 827143]
63 | 99 | COc1ccccc1C(=O)NCCCN1CCCN(c2csc3cc(F)ccc23)CC1 [compound 827141]
64 | 2.93 | Nc1cc2ccccc2cc1C(=O)NCCCCN1CCCN(c2csc3cc(F)ccc23)CC1 [compound 817259]

same assay, conditions: the 17th table; read-out: D3 Ki

Row | Ki [nM] | Compound
65 | 27 | O=C(NCC1CC1CN1CCCN(c2csc3cc(F)ccc23)CC1)c1ccc(-c2ccccc2)cc1 (racemic) [compound 830406]

same assay, conditions: the 18th table; read-out: D3 Ki

Row | Ki [nM] | Compound
66 | 63 | CC(C)(C)c1ccc(C(=O)NCc2sccc2CN2CCN(c3csc4cc(F)ccc34)CC2)cc1 [compound 826309]

same assay, conditions: the 19th table; read-out: D3 Ki

Row | Ki [nM] | Compound
67 | 332 | COc1cccc(C(=O)Nc2cccc(CN3CCN(c4csc5cc(F)ccc45)CC3)c2)c1 [compound 822181]
68 | 360 | COc1cccc(C(=O)Nc2ccc(CN3CCN(c4csc5cc(F)ccc45)CC3)cc2)c1 [compound 822209]

same assay, conditions: the 20th table; read-out: D3 Ki

Row | Ki [nM] | Compound
69 | 237 | O=C(NCc1ccoc1CN1CCN(c2csc3cc(F)ccc23)CC1)c1cccnc1Cl [compound 825853]
70 | 206 | O=C(NCc1ccoc1CN1CCN(c2csc3cc(F)ccc23)CC1)c1ccc(F)cc1 [compound 825845]

same assay, conditions: the 21st table; read-out: D3 Ki

Row | Ki [nM] | Compound
71 | 57.4 | COc1cccc(C(=O)NCCCCN2[C@H](C)CN(c3csc4cc(F)ccc34)C[C@@H]2C)c1 [compound 826942]
72 | 70.5 | C[C@@H]1CN(c2csc3cc(C(F)(F)F)ccc23)C[C@H](C)N1CCCCNC(=O)c1ccc2cc[nH]c2c1 [compound 826955]

same assay, conditions: the 22nd table; read-out: D3 Ki

Row | Ki [nM] | Compound
73 | 244 | Cc1ccccc1C(=O)NCCCCN1CCN(c2n[nH]c3ccsc23)CC1 [compound 825161]
74 | 221 | O=C(NCCCCN1CCN(c2n[nH]c3ccsc23)CC1)c1ccc(F)c(F)c1 [compound 825163]
75 | 151 | O=C(NCCCCN1CCN(c2noc3ccsc23)CC1)c1cc(C(F)(F)F)ccc1F [compound 829691]
76 | 515 | O=C(NCCCCN1CCN(c2noc3ccsc23)CC1)c1cccc(C(F)(F)F)c1 [compound 829673]

same assay, conditions: the 23rd table; read-out: D3 Ki

Row | Ki [nM] | Compound
77 | 46.2 | FC(F)(F)c1ccc2c(N3CCN(CC4CC4CN4CCC(N5CCCC5)CC4)CC3)csc2c1 (racemic) [compound 832568]
78 | 36.5 | FC(F)(F)c1ccc2c(N3CCN(C[C@@H]4C[C@H]4CNC4CCN(CC5CC5)CC4)CC3)csc2c1 [compound 832387]
79 | 112 | COc1cccc2c(C3CCN(C[C@@H]4C[C@H]4CNCCC(C)(C)C)CC3)noc12 [compound 833433]
80 | 71.9 | FC(F)(F)c1ccc2c(N3CCN(C[C@@H]4C[C@H]4CNCCSc4ccc(Cl)cc4)CC3)csc2c1 [compound 832388]
81 | 97.5 | Cc1nc(Cl)c(Cl)n1CCCNCC1CC1CN1CCN(c2csc3cc(C(F)(F)F)ccc23)CC1 (racemic) [compound 832644]

Further lines, the molecule ahead of its results:

Row | Compound | Ki [nM]
82 | c1cc2onc(C3CCN(CC4CC4CN4CCC(c5noc6ccsc56)CC4)CC3)c2s1 (racemic) [831205DA] | 6.38
83 | OC1CCC(NCC2CC2CN2CCN(c3csc4cc(C(F)(F)F)ccc34)CC2)CC1 (racemic) [832390FH] | 21.8

same assay, conditions: the 24th table; read-out: D3 Ki

Row | Ki [nM] | Compound
84 | 277 | O=S(=O)(CCc1cccc2ccccc12)NCC1CC1CN1CCN(c2csc3cc(C(F)(F)F)ccc23)CC1 (stereo not drawn) [compound 831910]
